# Source: patent US11524966B1 (Valo Early Discovery, Inc., priority 2017, dated 2022)
# Target: T1, USP28 (His-tagged USP28-FL-mammalian) (Homo sapiens, UniProt Q96RU2)
# T1 construct: Expression of USP28 (1-1077)-TEV-6*His (pTT5 vector); made in house; host or cells: Expi293f cells (pTT5 vector)
# T1 sequence (Q96RU2 1-1077): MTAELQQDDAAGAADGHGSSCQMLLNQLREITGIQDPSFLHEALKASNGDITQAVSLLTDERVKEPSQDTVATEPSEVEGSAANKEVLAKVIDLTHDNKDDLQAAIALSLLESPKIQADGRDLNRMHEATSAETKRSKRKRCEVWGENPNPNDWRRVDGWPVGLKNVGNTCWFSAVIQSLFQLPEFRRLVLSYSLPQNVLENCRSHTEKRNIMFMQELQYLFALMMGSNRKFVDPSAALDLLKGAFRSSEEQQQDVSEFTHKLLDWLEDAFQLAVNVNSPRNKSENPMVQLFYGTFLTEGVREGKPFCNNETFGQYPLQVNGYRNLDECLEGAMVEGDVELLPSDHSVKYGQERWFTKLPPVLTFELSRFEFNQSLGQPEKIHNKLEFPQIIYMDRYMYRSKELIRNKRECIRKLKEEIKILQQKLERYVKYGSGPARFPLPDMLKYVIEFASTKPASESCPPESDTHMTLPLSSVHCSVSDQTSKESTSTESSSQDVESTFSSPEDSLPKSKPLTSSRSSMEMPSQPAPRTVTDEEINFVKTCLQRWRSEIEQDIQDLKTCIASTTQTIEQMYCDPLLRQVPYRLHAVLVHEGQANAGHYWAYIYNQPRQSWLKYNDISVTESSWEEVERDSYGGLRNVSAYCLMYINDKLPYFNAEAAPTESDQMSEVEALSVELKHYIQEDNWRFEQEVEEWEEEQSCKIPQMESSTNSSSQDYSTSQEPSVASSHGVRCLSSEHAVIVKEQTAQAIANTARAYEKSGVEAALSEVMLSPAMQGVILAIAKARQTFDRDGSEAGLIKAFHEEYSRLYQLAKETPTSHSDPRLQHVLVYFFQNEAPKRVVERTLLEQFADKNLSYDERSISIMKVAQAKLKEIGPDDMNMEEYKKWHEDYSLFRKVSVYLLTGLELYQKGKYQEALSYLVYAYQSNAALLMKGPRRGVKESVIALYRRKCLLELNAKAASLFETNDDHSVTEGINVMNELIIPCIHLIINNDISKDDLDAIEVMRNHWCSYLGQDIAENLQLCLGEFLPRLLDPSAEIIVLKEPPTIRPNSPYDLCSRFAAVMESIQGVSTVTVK
# Assay: Ubiquitin-Rhodamine 110 Assay for USP28 Activity, Example A-1(a)
# Type: biochemical
# Conditions: Ubiquitin-Rhodamine 110 assay, Example A-1(a); read-out: USP28 A-1(a) IC50 range
# How it was run: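 Full-length His-tagged human USP28 (1-1077, Expi293f-expressed), […], with 25 nM Ub-Rh110 (<<Km) in pH 8.0 Tris buffer with BME, BGG, Triton X-100. 10-point dilutions (25 μM-1.3 nM), 45 min at room temperature, citric acid stop, fluorescence 485/535 nm; IC50 by 4-parameter fit.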
row,SMILES,IC50
1,"Cc1cnc2c(N)c(C(=O)N[C@H]3COc4c(F)c(N5CC6CCC(C5)N6)cc(F)c4C3)sc2n1 [Example 107, 7-amino-N-[(3R)-7-{3,8-diazabicyclo[3.2.1]octan-3-yl}-5,8-difluoro-3,4-dihydro-2H-1-benzopyran-3-yl]-3-methylthieno[2,3-b]pyrazine-6-carboxamide]",1 to 50 nM
2,"Cc1ccc2c(N)c(C(=O)N[C@H]3COc4cc(N5C[C@@H]6NCCO[C@@H]6C5)ccc4C3)sc2n1 [Example 153, N-[(3R)-7-[(4aS,7aR)-octahydropyrrolo[3,4-b]morpholin-6-yl]-3,4-dihydro-2H-1-benzopyran-3-yl]-3-amino-6-methylthieno[2,3-b]pyridine-2-carboxamide]",50 to 200 nM
3,"CCn1ccc2cc(C(=O)N[C@@H]3CCc4cc(N5C[C@H](OC)[C@@H](N)C5)cc(F)c4C3)nnc21 [Example 139, N-[(2R)-6-[(3S,4S)-3-amino-4-methoxypyrrolidin-1-yl]-8-fluoro-1,2,3,4-tetrahydronaphthalen-2-yl]-7-ethyl-7H-pyrrolo[2,3-c]pyridazine-3-carboxamide]",> 2000 nM
4,"CO[C@@H]1CCN(c2ccc3c(c2)OC[C@H](NC(=O)c2sc4nc(C)ccc4c2N)C3)C[C@H]1N [Example 120, 3-amino-N-[(3R)-7-[(3R,4R)-3-amino-4-methoxypiperidin-1-yl]-3,4-dihydro-2H-1-benzopyran-3-yl]-6-methylthieno[2,3-b]pyridine-2-carboxamide]",1 to 50 nM
5,"CO[C@@H]1CN(c2ccc3c(c2)CC[C@H](NC(=O)c2sc4nc(C)ccc4c2N)C3)C[C@@H]1N [Example 143, 3-amino-N-[(2S)-6-[(3S,4R)-3-amino-4-methoxypyrrolidin-1-yl]-1,2,3,4-tetrahydronaphthalen-2-yl]-6-methylthieno[2,3-b]pyridine-2-carboxamide]",1 to 50 nM
6,"CO[C@@H]1CN(c2ccc3c(c2)OC[C@H](NC(=O)c2sc4nc(C)ccc4c2N)C3)CC[C@H]1N [Example 129, 3-amino-N-[(3R)-7-[(3R,4R)-4-amino-3-methoxypiperidin-1-yl]-3,4-dihydro-2H-1-benzopyran-3-yl]-6-methylthieno[2,3-b]pyridine-2-carboxamide]",1 to 50 nM
7,"Cc1ccc2c(N)c(C(=O)N[C@H]3COc4cc([C@H]5C[C@H](N)C5)ccc4C3)sc2n1 [Example 124, 3-amino-6-methyl-N-[(3R)-7-[(1r,3r)-3-aminocyclobutyl]-3,4-dihydro-2H-1-benzopyran-3-yl]thieno[2,3-b]pyridine-2-carboxamide]",1 to 50 nM
8,"COC[C@H]1CN(c2ccc3c(c2)OC[C@H](NC(=O)c2sc4nc(C)ccc4c2N)C3)C[C@@H]1N [Example 164, 3-amino-N-[(3R)-7-[(3R,4S)-3-amino-4-(methoxymethyl)pyrrolidin-1-yl]-3,4-dihydro-2H-1-benzopyran-3-yl]-6-methylthieno[2,3-b]pyridine-2-carboxamide]",1 to 50 nM
9,"CO[C@H]1CN(c2cc3c(cc2F)C[C@@H](NC(=O)c2sc4nc(C)ccc4c2N)CO3)C[C@@H]1N [Example 94, 3-amino-N-[(3R)-7-[(3S,4S)-3-amino-4-methoxypyrrolidin-1-yl]-6-fluoro-3,4-dihydro-2H-1-benzopyran-3-yl]-6-methylthieno[2,3-b]pyridine-2-carboxamide]",1 to 50 nM
10,"Cc1ccc2c(N)c(C(=O)N[C@H]3COc4cc(N5CC6CNCC(C5)O6)c(F)cc4C3)sc2n1 [Example 106, 3-amino-N-[(3R)-6-fluoro-7-{9-oxa-3,7-diazabicyclo[3.3.1]nonan-3-yl}-3,4-dihydro-2H-1-benzopyran-3-yl]-6-methylthieno[2,3-b]pyridine-2-carboxamide]",1 to 50 nM
11,"Cc1ccc2c(N)c(C(=O)N[C@H]3COc4cc(N5CC6CCC(C5)N6)cc(F)c4C3)oc2n1 [Example 170, 3-amino-N-[(3R)-7-{3,8-diazabicyclo[3.2.1]octan-3-yl}-5-fluoro-3,4-dihydro-2H-1-benzopyran-3-yl]-6-methylfuro[2,3-b]pyridine-2-carboxamide]",200 to 2000 nM
12,"CO[C@H]1CN(c2cc(F)c3c(c2C#N)OC[C@H](NC(=O)c2sc4nc(C)ccc4c2N)C3)C[C@@H]1N [Example 175, 3-amino-N-[(3R)-7-[(3S,4S)-3-amino-4-methoxypyrrolidin-1-yl]-8-cyano-5-fluoro-3,4-dihydro-2H-1-benzopyran-3-yl]-6-methylthieno[2,3-b]pyridine-2-carboxamide]",50 to 200 nM
13,"CCO[C@H]1CN(c2ccc3c(c2)OC[C@H](NC(=O)c2sc4nc(C)ccc4c2N)C3)C[C@@H]1N [Example 115, 3-amino-N-[(3R)-7-[(3S,4S)-3-amino-4-ethoxypyrrolidin-1-yl]-3,4-dihydro-2H-1-benzopyran-3-yl]-6-methylthieno[2,3-b]pyridine-2-carboxamide]",1 to 50 nM
14,"CO[C@H]1CN(c2ccc3c(c2)OC[C@H](NC(=O)c2sc4nc(C)ccc4c2N)C3)CC[C@@H]1N [Example 128, 3-amino-N-[(3R)-7-[(3S,4S)-4-amino-3-methoxypiperidin-1-yl]-3,4-dihydro-2H-1-benzopyran-3-yl]-6-methylthieno[2,3-b]pyridine-2-carboxamide]",1 to 50 nM
15,"CO[C@H]1CN(c2ccc3c(c2)CC[C@H](NC(=O)c2sc4nc(C)cnc4c2N)C3)C[C@@H]1N [Example 130, 7-amino-N-[(2S)-6-[(3S,4S)-3-amino-4-methoxypyrrolidin-1-yl]-1,2,3,4-tetrahydronaphthalen-2-yl]-3-methylthieno[2,3-b]pyrazine-6-carboxamide]",50 to 200 nM
16,"CCn1ccc2cc(C(=O)N[C@H]3CCc4cc(N5C[C@H](OC)[C@@H](N)C5)ccc4C3)nnc21 [Example 131, N-[(2S)-6-[(3S,4S)-3-amino-4-methoxypyrrolidin-1-yl]-1,2,3,4-tetrahydronaphthalen-2-yl]-7-ethyl-7H-pyrrolo[2,3-c]pyridazine-3-carboxamide]",> 2000 nM
17,"Cc1ccc2c(N)c(C(=O)N[C@H]3COc4cc([C@H]5C[C@@H](N)C5)ccc4C3)sc2n1 [Example 123, 3-amino-6-methyl-N-[(3R)-7-[(1s,3S)-3-aminocyclobutyl]-3,4-dihydro-2H-1-benzopyran-3-yl]thieno[2,3-b]pyridine-2-carboxamide]",1 to 50 nM
18,"COC[C@@H]1CNCCN1c1ccc2c(c1)OC[C@H](NC(=O)c1sc3nc(C)ccc3c1N)C2 [Example 155, 3-amino-N-[(3R)-7-[(2S)-2-(methoxymethyl)piperazin-1-yl]-3,4-dihydro-2H-1-benzopyran-3-yl]-6-methylthieno[2,3-b]pyridine-2-carboxamide]",1 to 50 nM
19,"Cc1ccc2c(N)c(C(=O)N[C@H]3COc4cc(N5CC6CCC(C5)N6)c(C#N)c(F)c4C3)sc2n1 [Example 126, 3-amino-N-[(3R)-6-cyano-7-{3,8-diazabicyclo[3.2.1]octan-3-yl}-5-fluoro-3,4-dihydro-2H-1-benzopyran-3-yl]-6-methylthieno[2,3-b]pyridine-2-carboxamide]",1 to 50 nM
20,"CO[C@H]1CCN(c2ccc3c(c2)OC[C@H](NC(=O)c2sc4nc(C)ccc4c2N)C3)C[C@@H]1N [Example 119, 3-amino-N-[(3R)-7-[(3S,4S)-3-amino-4-methoxypiperidin-1-yl}-3,4-dihydro-2H-1-benzopyran-3-yl]-6-methylthieno[2,3-b]pyridine-2-carboxamide]",50 to 200 nM
21,"CO[C@@H]1CN(c2ccc3c(c2)OC[C@H](NC(=O)c2sc4nc(C)ccc4c2N)C3)C[C@@H]1N [Example 121, 3-amino-N-[(3R)-7-[(3S,4R)-3-amino-4-methoxypyrrolidin-1-yl]-3,4-dihydro-2H-1-benzopyran-3-yl]-6-methylthieno[2,3-b]pyridine-2-carboxamide]",1 to 50 nM
22,"Cc1ccc2c(N)c(C(=O)N[C@H]3COc4c(F)c(N5C[C@H]6C[C@@H]5CN6)cc(F)c4C3)sc2n1 [Example 111, 3-amino-N-[(3R)-7-[(1R,4R)-2,5-diazabicyclo[2.2.1]heptan-2-yl]-5,8-difluoro-3,4-dihydro-2H-1-benzopyran-3-yl]-6-methylthieno[2,3-b]pyridine-2-carboxamide]",1 to 50 nM
